# Experimental data: US20220265646A1, “PIEZO AGONISTS FOR PREVENTING OR REVERTING ABNORMAL AMYLOID DEPOSITION” (ITÄ-SUOMEN YLIOPISTO, priority 2019, published 2022)
# How the values were obtained:
# Piezo1Rs = molecular target: T1, Piezo1Rs (Homo sapiens, UniProt Q92508); experiment: Calcium imaging of Yoda1-evoked Ca2+ transients in SV-40 immortalized human microglia cell line; format: cell-based; conditions: control SV-40 cells, n=13
# T1 construct: SV-40 immortalized human microglia cell line which endogenously express Piezo-1 and Piezo2Rs was used; endogenous in cells; host or cells: SV-40 immortalized human microglia cell line
# T1 sequence (Q92508 whole entry): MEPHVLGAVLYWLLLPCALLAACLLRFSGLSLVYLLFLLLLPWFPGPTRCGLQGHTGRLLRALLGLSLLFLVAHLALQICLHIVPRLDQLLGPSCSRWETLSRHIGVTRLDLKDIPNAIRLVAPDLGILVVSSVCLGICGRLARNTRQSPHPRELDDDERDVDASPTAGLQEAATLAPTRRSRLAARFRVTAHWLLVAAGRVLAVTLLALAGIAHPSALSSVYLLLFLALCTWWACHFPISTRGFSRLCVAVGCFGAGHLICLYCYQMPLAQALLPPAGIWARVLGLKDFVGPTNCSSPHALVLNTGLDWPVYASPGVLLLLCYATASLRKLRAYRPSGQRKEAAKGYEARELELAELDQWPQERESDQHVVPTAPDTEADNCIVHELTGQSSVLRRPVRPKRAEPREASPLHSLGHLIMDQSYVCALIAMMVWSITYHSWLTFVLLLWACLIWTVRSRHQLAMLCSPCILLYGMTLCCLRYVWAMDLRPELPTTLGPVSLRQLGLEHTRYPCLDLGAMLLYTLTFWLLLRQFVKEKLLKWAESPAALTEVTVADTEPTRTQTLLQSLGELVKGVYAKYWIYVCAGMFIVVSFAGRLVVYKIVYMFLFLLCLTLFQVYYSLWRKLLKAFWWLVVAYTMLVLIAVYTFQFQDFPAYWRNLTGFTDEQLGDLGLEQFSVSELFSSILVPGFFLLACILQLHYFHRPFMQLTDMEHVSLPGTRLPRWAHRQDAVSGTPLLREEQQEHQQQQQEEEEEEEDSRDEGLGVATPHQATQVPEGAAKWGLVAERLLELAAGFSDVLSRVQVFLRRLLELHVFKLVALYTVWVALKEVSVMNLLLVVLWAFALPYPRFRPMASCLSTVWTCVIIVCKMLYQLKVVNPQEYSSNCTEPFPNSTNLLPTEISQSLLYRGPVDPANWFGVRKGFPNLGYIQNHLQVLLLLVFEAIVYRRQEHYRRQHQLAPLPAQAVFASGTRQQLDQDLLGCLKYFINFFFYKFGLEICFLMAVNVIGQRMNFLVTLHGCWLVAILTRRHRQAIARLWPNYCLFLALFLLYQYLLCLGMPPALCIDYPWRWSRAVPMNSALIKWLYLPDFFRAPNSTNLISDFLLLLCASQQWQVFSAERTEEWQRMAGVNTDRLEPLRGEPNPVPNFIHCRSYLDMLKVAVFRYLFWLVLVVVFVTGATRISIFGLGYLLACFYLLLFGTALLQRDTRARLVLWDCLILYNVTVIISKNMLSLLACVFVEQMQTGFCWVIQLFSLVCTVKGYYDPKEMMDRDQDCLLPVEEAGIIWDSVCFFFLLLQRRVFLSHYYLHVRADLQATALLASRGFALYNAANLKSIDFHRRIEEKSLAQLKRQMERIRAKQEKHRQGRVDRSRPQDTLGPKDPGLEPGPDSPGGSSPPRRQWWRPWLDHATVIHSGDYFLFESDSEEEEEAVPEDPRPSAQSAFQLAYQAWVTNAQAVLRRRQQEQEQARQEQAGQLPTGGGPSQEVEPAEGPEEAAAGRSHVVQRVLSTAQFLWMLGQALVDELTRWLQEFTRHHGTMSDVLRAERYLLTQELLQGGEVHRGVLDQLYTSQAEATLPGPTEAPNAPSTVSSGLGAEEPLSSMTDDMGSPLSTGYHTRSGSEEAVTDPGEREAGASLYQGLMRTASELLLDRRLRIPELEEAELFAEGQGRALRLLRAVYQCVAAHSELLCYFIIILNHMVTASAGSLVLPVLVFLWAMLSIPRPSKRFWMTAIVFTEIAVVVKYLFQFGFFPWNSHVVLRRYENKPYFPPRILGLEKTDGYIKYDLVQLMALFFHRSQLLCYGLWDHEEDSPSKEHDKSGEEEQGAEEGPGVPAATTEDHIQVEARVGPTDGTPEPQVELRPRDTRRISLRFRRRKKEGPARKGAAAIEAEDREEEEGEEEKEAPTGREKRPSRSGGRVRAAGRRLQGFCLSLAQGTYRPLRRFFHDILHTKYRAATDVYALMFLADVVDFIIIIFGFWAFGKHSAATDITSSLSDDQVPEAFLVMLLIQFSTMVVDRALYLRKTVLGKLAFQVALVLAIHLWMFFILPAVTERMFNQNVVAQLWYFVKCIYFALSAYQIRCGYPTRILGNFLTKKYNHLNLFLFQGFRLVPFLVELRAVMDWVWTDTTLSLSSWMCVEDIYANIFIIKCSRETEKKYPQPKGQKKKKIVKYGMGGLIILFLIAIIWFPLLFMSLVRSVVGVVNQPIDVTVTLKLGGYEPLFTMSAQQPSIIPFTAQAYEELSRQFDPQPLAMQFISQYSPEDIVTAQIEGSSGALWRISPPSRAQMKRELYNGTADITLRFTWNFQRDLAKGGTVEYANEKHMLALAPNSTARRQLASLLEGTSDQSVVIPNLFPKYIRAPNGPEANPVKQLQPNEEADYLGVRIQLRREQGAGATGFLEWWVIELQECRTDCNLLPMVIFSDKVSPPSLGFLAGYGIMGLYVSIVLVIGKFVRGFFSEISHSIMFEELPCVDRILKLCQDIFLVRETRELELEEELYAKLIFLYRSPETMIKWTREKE
# Method: To study the calcium influx evoked by native Piezo1 Rs expressed in microglia cells the present inventors used short Yoda1 applications (2 s, 50 μM if not otherwise specified). For this purpose, human IPSO derived microglia cells and SV-40 (immortalized human microglia) cells were seeded on 7 mm cover slips 1 day prior to the imaging experiment. Cells were loaded with the calcium-sensitive fluorescent dye Fluo-4AM (5 μM) for 30 min at 37° C. Followed by wash-incubation for 15 min in Ab 20 μM, 50 μM GdCI and basic solution (BS) as a control at 37° C. The basic solution containing the following (BS, in mM): 2.5 KCl, 152 NaCl, 10 glucose, 2 CaCl2, and 10 HEPES at pH 7.4. Fluorescence was visualized using monochromatic light source (TILL Photonics GmbH) using Ex/Im 494/[…] and a CCD camera (SensiCam). […] To quantify the difference in the amplitude of calcium transients, the ratio values were normalized by subtracting a baseline and further divided by the amplitude of the calcium transient to the 2 sec application of the ionomycin. Data were pre-analyzed offline using the FEI offline analysis (TILL Photonics), and further analysis was automatized using MatLab. Quantitative data were expressed as means±SEM unless otherwise stated. […] Significance assessed with the ANOVA test or Mann-Whitney t test for non-parametric data. […]
# hIPSC-derived microglia = experiment: Cytokine measurement (cytokine bead assay) in LPS-treated iPSC-derived microglia; format: cell-based, human; conditions: Yoda1 20 μM (Y20), n=4 per group
# Method: Cytokine measurement. The impact of Piezo1Rs effect on the capacity of the iPSC derived microglia to release cytokines was evaluated using cytokine bead assay (CBA, PD Pharmingen)). Shortly, prior to the experiment IPSCs were plated in 24-well plate at 70,000 cells/cm^2 and cultured for 48 hours. […] Next, media were collected, centrifuged to remove any cell debris, and the supernatant was frozen at −70° C. Cytokines were analyzed with cytometric bead array mouse inflammation kit (BD Biosciences) according to manufacturer's instructions.
# hiPSC-microglia = experiment: Cytotoxicity assay (Cytotox Green, Incucyte S3); format: cell-based; conditions: 2-20 μM Yoda1, 60-hour time point, n=3 experiments
# Method: Cytotoxicity assay. The cytotoxicity of in vitro cultures was assessed with Cytotox Green assay (Essen Bioscience) using Incucyte S3 Live-Cell Analysis System (Essen Bioscience, Ann Arbor, Mich., USA, #4647). Microglia were seeded for the assay at density of 15 000 cells per well on poly-D-lysine (PDL, Sigma, #P0899) coated Nunclon (Thermo Scientific, #167008) or ImageLock 96-well plates (Essen Bioscience, #4379). On the assay day, cells were treated with 0.1-20 μM Yoda1 (Tocris, #5586) in PM medium supplemented with 250 nM Cytotox Green reagent (Essen Bioscience, #4633). Equal volume of DMSO (Sigma, #D2650) was used as a vehicle and 200 μM MPP+(Sigma, #D048) was applied as a positive control. Cells were live-imaged in IncuCyte S3 at 37° C. and 5% CO2 every 3 hours for 3 days to obtain cell death over time. One to two 10× images per well were captured using the phase-contrast mode to obtain confluency and the green fluorescence mode to obtain fluorescent intensity. Quantification was performed using IncuCyte S3 Software (2019B). Green fluorescence was separated from background with a top-hat thresholding and all settings were kept constant between different conditions. […]
structure (smiles),measurement,setting,value
Clc1cccc(Cl)c1CSc1nnc(-c2cnccn2)s1 [Yoda1],"Yoda1 activated Ca2+ transients, amplitude normalized to ionomycin",Piezo1Rs,0.82±0.14
same,secretion of anti-inflammatory IL-10,hIPSC-derived microglia; LPS,increases the secretion
same,LPS induced secretion of pro-inflammatory IL-6,hIPSC-derived microglia,prevented the LPS induced secretion
same,LPS induced secretion of pro-inflammatory IL-8,hIPSC-derived microglia,prevented the LPS induced secretion
same,LPS induced secretion of pro-inflammatory MCP1,hIPSC-derived microglia,prevented the LPS induced secretion
same,microglial cell death (cytotoxicity dye uptake),hiPSC-microglia,protects hiPSC-microglia from cell death
